Assay results as given in patent US20210052679A1, “PROBIOTIC DELIVERY OF GUIDED ANTIMICROBIAL PEPTIDES” (priority 2019, published 2021).

Legend:
[1] = system: Staphylococcus aureus and Staphylococcus epidermidis; assay: In vitro bactericidal activity assay, targeted staphylococci; type: cell-based; settings: S. aureus and S. epidermidis
Protocol: The Ulp-1 protease-cleaved proteins were tested for antimicrobial assays against four strains of bacteria: Staphylococcus aureus, Staphylococcus epidermidis, Enterococcus faecalis and Bacillus subtilis. These four species were selected because they are gram positive and the AMPs plectasin and eurocin are specifically active against gram positive bacteria (Mygind et al. 2005, Oeemig et al. 2012). The component controls were free SUMO protein and synthetically produced A12C peptide. Vancomycin was used as the positive control. The standard protocol for a microtiter plate assay with serial dilution was used in which serial 2-fold dilutions of test peptide were made across a 96-well plate containing uniform bacterial inoculum across the peptide dilutions. After bacterial growth in the presence of peptide, cell viability was assayed with resazurin. Experiments with all peptides against all bacterial species were performed with >5 replicates each.

H. pylori [2] = assay: Therapeutic control of H. pylori in mice (qPCR of stomach fluid); type: in vivo, mouse; settings: at Day 10, within each AMP/gAMP pair
From the text: These mice were inoculated with H. pylori and the H. pylori was allowed to establish itself in the mouse stomach for 3 days, with daily inoculations to ensure establishment. The mice were then given L. lactis secreting AMP or gAMP to therapeutically treat the H. pylori infection. Stomach samples were collected on Day 0 before H. pylori inoculation; resuspended H. pylori were fed by oral gavage once daily for 3 consecutive days; stomach samples were then collected on Day 5 to test for H. pylori presence and on Day 5 resuspended L. lactis were fed to the mice; subsequent stomach samples were collected on Day 8 and 10.
(§1) The L. lactis cultures were propagated overnight as described above. The overnight cultures were spun down at 4000 g for 15 min at 4° C. The pellets were resuspended in sterile PBS. H. pylori stocks were grown overnight on Blood-TS agar as described above and then scraped by a sterile loop and resuspended in sterile PBS. The either bacterial suspension were fed to the mice using 1.5 ga oral gavage needle not exceeding half their stomach volume (˜250 μL). The colony forming units (CFUs) of the resuspension being fed were determined by diluting the resuspension 1/1000 and 1/10000 times and plating on appropriate plates. Pre- and post-inoculation samples from the mouse stomach were collected by flushing their stomach with excess PBS (˜300 μL) and the stomach fluid was collected by reversing the oral gavage injection until the vacuum was maintained.
(§2) The supernatants were collected and plated in a 96-well plate and qPCR was performed with primers for the VacA gene to quantify for H. pylori and primers for the acma gene to quantify for L. lactis. Standard curves for each bacterium against their CT values were constructed by including different dilutions of the overnight cultures of the respective bacteria (1/10, 1/100, 1/1000, 1/10000) in the qPCR and plating those dilutions on respective plates to determine the corresponding CFU values. Each data point represents at least 3 replicate mice.
This was used to generate CFU/μl data from qPCR CT values in FIG. 14.

H. pylori [3] = assay: Prophylactic control of H. pylori in mice (qPCR of stomach fluid); type: in vivo, mouse; settings: Day 12; probiotic pre-treatment before H. pylori challenge; FIG. 15
Protocol: as §1
as §2, with “mice. […]” for “mice.”

H. pylori [4] = assay: L. lactis/H. pylori co-culture and qPCR on VacA gene; type: cell-based, Helicobacter pylori; settings: 24 h co-culture with L. lactis expressing AMP/gAMP; FIG. 10
Protocol: In the co-cultures, different dilutions of L. lactis were used but each well had 10 μl of H. pylori culture (˜3000 CFUs). The L. lactis secreted AMP, gAMP or contained an empty expression vector. Alyteserin and CRAMP were the AMPs tested. These were constructed either genetically fused to the multimerin-derived guide peptide (guide AMP or gAMP) or not (AMP). The amount of H. pylori present in the co-culture at any given time point was measured by qPCR, using primers specific for the VacA gene itself, which codes for the receptor protein to which the gAMP binds. The entire experiment was run in triplicate and the growth of H. pylori after 24 h in the presence of L. lactis expressing various AMPs or gAMPs is shown in FIG. 10.
L. lactis AMP/gAMP clones were propagated from glycerol stocks and grown in GM17 broth overnight with erythromycin (5 μg/ml) with no shaking. H. pylori stocks were first propagated on Blood-TS agar overnight with microaerobic condition and >5% CO2 environment. Then colonies from the plate were transferred to a TS broth with newborn calf serum (5%) and grown overnight under microaerobic condition and >5% CO2 environment. The L. lactis cultures were serially diluted in a 96-well culture plate with TSB broth to make up a volume of 100 μL. To each well, 10 μL of the overnight H. pylori culture was added and each well volume was brought up to 200 μL with more TS broth. The plate was left to grow overnight in a microaerobic environment with >5% CO2. After 24 h, well contents from the culture plate were transferred to a 96-well PCR plate. […] The qPCR was done using primers for VacA gene to quantify H. pylori (forward: 5′-[…]-3′ (SEQ ID NO:12), reverse: 5′-[…]-3′ (SEQ ID NO:13) and primers for acma gene for quantifying L. lactis. Standard curves for H. pylori and L. lactis were constructed by determining CT values for different dilutions of the overnight cultures of the respective bacteria (1/10, 1/100, 1/1000, 1/10000) in the qPCR plates, the CFUs for the dilutions were determined by plating on their respective agar plates.

E. coli = E. coli viability with supernatants of Lactococcus lactis broth cultures; type: cell-based, Escherichia coli; settings: L. lactis culture supernatant, 4 hours of exposure; FIG. 8
From the text: This is reported in FIG. 8 as the survival of E. coli in the presence of broth culture of Lactococcus lactis secreting antimicrobial peptide with or without a guide peptide. […] It should be noted that the legend is in reverse order of the lines, top to bottom, with the upper line in the graph being the buffer control and the lower line being vancomycin. To obtain the results shown in FIG. 8, cultures of Lactococcus lactis containing either the empty pT1bin1 vector, pT1bin1 harboring the antimicrobial peptide laterosporulin, or pT1bin1 harboring laterosporulin genetically fused to the guide peptide from multimerin were centrifuged to remove bacterial cells and the resulting supernatants were added to separate starter cultures of E. coli to check for inhibition of E. coli growth. The starter culture used supplying all replicates consisted of 500 μl of overnight culture of E. coli diluted in 50 ml of LB broth. […] E. coli viability was measured by plating onto LB agar plates the cultures in each well after 4 hours of exposure to supernatant or antibiotic. The resulting colonies appearing on the plates were recorded, with the undiluted buffer control treatment being set to 100% and all other treatments being converted to a fraction of this value, as plotted on the y-axis.

Lactobacillus plantarum = assay: Off-target co-culture with L. lactis, qPCR; type: cell-based; settings: 24 hours; probiotic at 100,000/μl CFU level; FIG. 11
Protocol: L. lactis AMP/gAMP clones were propagated from glycerol stocks and grown in GM17 broth overnight with erythromycin (5 μg/ml) with no shaking. H. pylori stocks were first propagated on Blood-TS agar overnight with microaerobic condition and >5% CO2 environment. Then colonies from the plate were transferred to a TS broth with newborn calf serum (5%) and grown overnight under microaerobic condition and >5% CO2 environment. The L. lactis cultures were serially diluted in a 96-well culture plate with TSB broth to make up a volume of 100 μL. To each well, 10 μL of the overnight H. pylori culture was added and each well volume was brought up to 200 μL with more TS broth. The plate was left to grow overnight in a microaerobic environment with >5% CO2. After 24 h, well contents from the culture plate were transferred to a 96-well PCR plate. That PCR plate was sealed and heated for 15 min at 100° C. and chilled at 4° C. for 5 min. Then the plate was centrifuged at 2000 g for 2 min and the supernatant was used as the template for qPCR. The qPCR was done using primers for VacA gene to quantify H. pylori (forward: 5′-[…]-3′ (SEQ ID NO:12), reverse: 5′-[…]-3′ (SEQ ID NO:13) and primers for acma gene for quantifying L. lactis. Standard curves for H. pylori and L. lactis were constructed by determining CT values for different dilutions of the overnight cultures of the respective bacteria (1/10, 1/100, 1/1000, 1/10000) in the qPCR plates, the CFUs for the dilutions were determined by plating on their respective agar plates.
The experimental design was identical to that described above in Example 3, with the exception of the off-target bacterium replacing the targeted H. pylori. The off-target bacteria used were Lactobacillus plantarum (gram positive) and Escherichia coli (gram negative).

| Molecule | more H. pylori with the AMP versus the gAMP (H. pylori [2]) | H. pylori in co-culture (qPCR on VacA gene) (H. pylori [4]) | Lactobacillus plantarum level after co-culture (Lactobacillus plantarum) | other results |
| --- | --- | --- | --- | --- |
| A12C-plectasin | – | – | – | toxicity/activity against targeted staphylococci [1]: highly active |
| Alyteserin (GLKDIFKAGLGSLVKGIAAHVAN; alyteserin AMP) | 15 fold | not very effective unless fused to the guide peptide | – | H. pylori in mouse stomach fluid (H. pylori [3]): 2000 CFU/μl |
| CRAMP (ISRLAGLLRKGGEKIGEKLKKIGQKIKNFFQKLVPQPE; cathelin-related anti-microbial peptide (CRAMP)) | 15 fold | equally toxic | – | – |
| Laterosporulin (ACQCPDAISGWTHTDYQCHGLENKMYRHVYAICMNGTQVYCRTEWGSSC; laterosporulin AMP) | 2.5 fold | – | – | viability of E. coli vs empty vector baseline (E. coli): significant decrease in viability |
| MM1-Alyteserin (MQKMTDQVNYQAMKLTLLQKSGGGSGLKDIFKAGLGSLVKGIAAHVAN; MM1-alyteserin gAMP) | – | – | 10,000 CFU/μl | H. pylori in mouse stomach fluid (H. pylori [3]): 1500 CFU/μl |
| MM1-CRAMP (protein, MM1-CRAMP gAMP) MQKMTDQVNYQAMKLTLLQKSGGGSISRLAGLLRKGGEKIGEKLKKIGQKIKNFFQKLVPQPE | – | equally toxic | 2500 CFU/μl | – |
| MM1-Laterosporulin (protein, MM1-laterosporulin gAMP) MQKMTDQVNYQAMKLTLLQKSGGGSACQCPDAISGWTHTDYQCHGLENKMYRHVYAICMNGTQVYCRTEWGSSC | – | – | 10,000 CFU/μl | viability of E. coli vs empty vector baseline (E. coli): no significant difference |
